{
  "source": "patent US20220175638A1",
  "about": "“CELL ACTIVATOR” (Shiseido Company, Ltd., priority 2019, published 2022)",
  "key": {"Human skin fibroblasts [1]": {"tested_on": "Human skin fibroblasts", "experiment": "Experiment 3: restoration of UV irradiation-reduced cellular activity", "assay_type": "cell-based", "conditions": "pre-irradiation 400 mJ/cm^2 without substance, then UV 0-200 mJ/cm^2 through 0.4% or 2% C-phycocyanin; FIG. 5", "protocol": "(§1) 1. Human skin fibroblasts (purchased from Kurabo) and human skin keratinocytes (purchased from Kurabo or PromoCell) were used. A cell suspension (1 mL) stored with liquid nitrogen was placed in a hot water bath (37° C.) and thawed until small ice pellets remained, and then diluted with 9 mL of warm medium. 2. The diluted suspension was gently mixed and transferred to a T75 flask, and incubated overnight at 37° C. 3. On the following day, the medium was exchanged with 10 mL of fresh medium. 4. The medium was periodically exchanged (once every 2 days for fibroblasts, or once every 2 to 3 days for keratinocytes), while continuing growth of the cells. During this time, a microscope was used to observe the cells and to confirm that the cells had proliferated with the proper form. 5. Once the cells reached approximately 80% confluence, they were subcultured. Subculturing of the cells was carried out by rinsing once in 10 mL of warm PBS, after which 5 mL of warm trypsin was added to the T75 flask to cover the bottom of the flask with the trypsin solution, and the mixture was suctioned after standing for 1 minute at room temperature. 6. The flask was set in an oven at 37° C. for 2 minutes (maximum) for fibroblasts and 7 minutes (maximum) for keratinocytes. A microscope was used to observe the cells, confirming that they were small and elliptical. 7. […]"}, "Human skin fibroblasts [2]": {"tested_on": "Human skin fibroblasts", "experiment": "Experiment 2: cellular activity at different C-phycocyanin concentrations and UV doses", "assay_type": "cell-based", "conditions": "UV 0, 10, 25, 50, 75 and 100 mJ/cm^2, FIG. 3", "protocol": "as §1"}},
  "data": [
    {"substance": "C-phycocyanin", "values": [
      {"measurement": "cellular activity of cells with previously lowered activity", "setting": "Human skin fibroblasts [1]", "result": "cellular activity was restored"},
      {"measurement": "cellular activity (relative fluorescence intensity)", "setting": "Human skin fibroblasts [2]; 0.4% C-phycocyanin", "result": "reduction in cellular activity was inhibited even under UV irradiation"},
      {"measurement": "cellular activity (relative fluorescence intensity)", "setting": "Human skin fibroblasts [2]; 2% C-phycocyanin", "result": "accelerated cellular activity even above the level with no UV irradiation"}
    ]}
  ]
}
